Measured values published in patent US10407409B2, “6-(5-hydroxy-1H-pyrazol-1-yl)nicotinamide inhibitors of PHD” (Takeda Pharmaceutical Company Limited, priority 2013, dated 2019).

Legend:
[1] = biological target: PHD2 enzyme (residues 181-417) (Homo sapiens (Human), UniProt Q9GZT9); assay: Inhibition of PHD enzyme (LC/MS peptide hydroxylation assay); format: biochemical; conditions: PHD2 (residues 181-417) 5 nM, 60 min pre-incubation; -log(IC50), IC50 molar
How it was run: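 Hydroxylated peptide quantified by LC/MS after 60 min turnover of 1 uM biotinylated peptide with 2 uM 2-oxoglutarate and 1 mM ascorbate, stopped by excess tight-binding inhibitor. Beforehand, 5 nM enzyme and compound were preincubated 60 min at RT, pH 7.3 HEPES/KCl/TCEP/FeCl2/BSA buffer. Values as pIC50 (−log molar IC50).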

[2] = test system: HIF1a protein in H9c2 rat cardiomyocytes; assay: Cell-based HIF-alpha stabilization assay (inhibition of PHD in cells); conditions: Rattus norvegicus, H9c2, 24 h, 24 hrs compound incubation, HIF1a protein by ELISA, read-out: Inhibition of PHD in cells (pEC50) (converted)
How it was run: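 HIF1a stabilization was measured by ELISA on lysates of H9c2 rat cardiomyocytes after 24 h exposure to 11 serial compound concentrations, expressed relative to the desferrioxamine maximum. Curve fits gave EC50. EC50pos denotes the concentration producing half the desferrioxamine maximal response.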

Chain of PHD2 enzyme (residues 181-417) (Q9GZT9 181-417): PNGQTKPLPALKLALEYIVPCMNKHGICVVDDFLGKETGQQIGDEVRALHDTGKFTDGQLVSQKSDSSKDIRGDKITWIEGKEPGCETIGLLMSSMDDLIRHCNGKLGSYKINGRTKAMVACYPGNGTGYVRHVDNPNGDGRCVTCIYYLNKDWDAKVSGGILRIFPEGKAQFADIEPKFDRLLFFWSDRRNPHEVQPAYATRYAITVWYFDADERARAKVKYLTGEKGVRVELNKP

Question: For `CCCNC(=O)c1ccc(-n2ncc(-c3ccc(C#N)cc3C)c2O)nc1` [Example 60, 6-(4-(4-cyano-2-methylphenyl)-5-hydroxy-1H-pyrazol-1-yl)-N-propylnicotinamide], which “PHD Inhibition (pIC50)” value [1] is on record?
Answer: The value was 7.14.

Question: And the EC50 [2]?
Answer: Its EC50 is 200 nM.

Question: Which results are given for `Cc1cc(C#N)ccc1-c1cnn(-c2ccc(C(=O)NC3(C)CC3)cn2)c1O` [Example 61, 6-(4-(4-cyano-2-methylphenyl)-5-hydroxy-1H-pyrazol-1-yl)-N-(1-methylcyclopropyl)nicotinamide]?
Answer: PHD Inhibition (pIC50) [1]: 7.19; EC50 [2]: 79.4 nM

Question: `COC[C@@H](NC(=O)c1ccc(-n2ncc(-c3ccc(C#N)cc3C)c2O)nc1)C(C)C` [Example 62, (S)-6-(4-(4-cyano-2-methylphenyl)-5-hydroxy-1H-pyrazol-1-yl)-N-(1-methoxy-3-methylbutan-2-yl)nicotinamide] was tested. Which “PHD Inhibition (pIC50)” value [1] did it give?
Answer: Its value is 7.14.

Question: And the EC50 [2]?
Answer: Its EC50 is 182 nM.

Question: How did the “PHD Inhibition (pIC50)” value [1] turn out when `Cc1cc(C#N)ccc1-c1cnn(-c2ccc(C(=O)N[C@H](C)C3CCOCC3)cn2)c1O` [Example 63, (R)-6-(4-(4-cyano-2-methylphenyl)-5-hydroxy-1H-pyrazol-1-yl)-N-(1-(tetrahydro-2H-pyran-4-yl)ethyl)nicotinamide] was run?
Answer: The value was 7.25.

Question: What about the EC50 [2] of the same compound?
Answer: The EC50 was 158 nM.

Question: Which results are given for `Cc1cc(C#N)ccc1-c1cnn(-c2ccc(C(=O)NCCC3CCOCC3)cn2)c1O` [Example 64, 6-(4-(4-cyano-2-methylphenyl)-5-hydroxy-1H-pyrazol-1-yl)-N-(2-(tetrahydro-2H-pyran-4-yl)ethyl)nicotinamide]?
Answer: PHD Inhibition (pIC50) [1]: 7.25; EC50 [2]: 158 nM

Question: For `COCC(C)(C)NC(=O)c1ccc(-n2ncc(-c3ccc(C#N)cc3C)c2O)nc1` [Example 65, 6-(4-(4-cyano-2-methylphenyl)-5-hydroxy-1H-pyrazol-1-yl)-N-(1-methoxy-2-methylpropan-2-yl)nicotinamide], which “PHD Inhibition (pIC50)” value [1] is on record?
Answer: Its value is 7.08.

Question: And the EC50 [2]?
Answer: The EC50 was 182 nM.

Question: How did the “PHD Inhibition (pIC50)” value [1] turn out when `Cc1cc(C#N)ccc1-c1cnn(-c2ccc(C(=O)NCCC3CCOC3)cn2)c1O` (stereo not shown) [Example 66, 6-(4-(4-cyano-2-methylphenyl)-5-hydroxy-1H-pyrazol-1-yl)-N-(2-(tetrahydrofuran-3-yl)ethyl)nicotinamide] was run?
Answer: Its value is 7.22.

Question: And the EC50 [2]?
Answer: The EC50 was 120 nM.

Question: How did the “PHD Inhibition (pIC50)” value [1] turn out when `COCCC(C)(C)NC(=O)c1ccc(-n2ncc(-c3ccc(C#N)cc3C)c2O)nc1` [Example 67, 6-(4-(4-cyano-2-methylphenyl)-5-hydroxy-1H-pyrazol-1-yl)-N-(4-methoxy-2-methylbutan-2-yl)nicotinamide] was run?
Answer: The value was 7.11.

Question: And the EC50 [2]?
Answer: Its EC50 is 219 nM.

Question: For `CO[C@H]1CC[C@H](NC(=O)c2ccc(-n3ncc(-c4ccc(C#N)cc4C)c3O)nc2)CC1` [Example 68, 6-(4-(4-cyano-2-methylphenyl)-5-hydroxy-1H-pyrazol-1-yl)-N-((1r,4r)-4-methoxycyclohexyl)nicotinamide], which “PHD Inhibition (pIC50)” value [1] is on record?
Answer: The value was 7.44.

Question: And the EC50 [2]?
Answer: The EC50 was 50.1 nM.

Question: Which results are given for `COCCC(C)NC(=O)c1ccc(-n2ncc(-c3ccc(C#N)cc3C)c2O)nc1` (stereo not shown) [Example 69, 6-(4-(4-cyano-2-methylphenyl)-5-hydroxy-1H-pyrazol-1-yl)-N-(4-methoxybutan-2-yl)nicotinamide]?
Answer: PHD Inhibition (pIC50) [1]: 7.22; EC50 [2]: 89.1 nM

Question: How did the “PHD Inhibition (pIC50)” value [1] turn out when `Cc1cc(C#N)ccc1-c1cnn(-c2ccc(C(=O)NCCCOCC3CC3)cn2)c1O` [Example 70, 6-(4-(4-cyano-2-methylphenyl)-5-hydroxy-1H-pyrazol-1-yl)-N-(3-(cyclopropylmethoxy)propyl)nicotinamide] was run?
Answer: Its value is 7.17.

Question: And the EC50 [2]?
Answer: Its EC50 is 229 nM.

Question: For `Cc1cc(C#N)ccc1-c1cnn(-c2ccc(C(=O)NC(CO)C3CCOC3)cn2)c1O` (stereo not shown) [Example 71, 6-(4-(4-cyano-2-methylphenyl)-5-hydroxy-1H-pyrazol-1-yl)-N-(2-hydroxy-1-(tetrahydrofuran-3-yl)ethyl)nicotinamide], which “PHD Inhibition (pIC50)” value [1] is on record?
Answer: The value was 7.24.

Question: And the EC50 [2]?
Answer: Its EC50 is 269 nM.

Question: For `N#Cc1ccc(-c2cnn(-c3ccc(C(=O)NC4CCNCC4)cn3)c2O)cc1` [Example 72], which “PHD Inhibition (pIC50)” value [1] is on record?
Answer: The value was 7.8.

Question: What about the EC50 [2] of the same compound?
Answer: Its EC50 is 2880 nM.

Question: What does the source list for `CC[C@H](CC#N)NC(=O)c1ccc(-n2ncc(-c3ccc(C#N)cc3)c2O)nc1` [Example 74, (R)—N-(1-cyanobutan-2-yl)-6-(4-(4-cyanophenyl)-5-hydroxy-1H-pyrazol-1-yl)nicotinamide]?
Answer: PHD Inhibition (pIC50) [1]: 7.05; EC50 [2]: 3160 nM

Question: How did the “PHD Inhibition (pIC50)” value [1] turn out when `N#Cc1ccc(-c2cnn(-c3ccc(C(=O)NC4CCCCC4)cn3)c2O)cc1` [Example 75, 6-(4-(4-cyanophenyl)-5-hydroxy-1H-pyrazol-1-yl)-N-cyclohexylnicotinamide] was run?
Answer: The value was 7.28.

Question: What about the EC50 [2] of the same compound?
Answer: The EC50 was 1700 nM.

Question: Which “PHD Inhibition (pIC50)” value [1] does the source give for `CN1CC(NC(=O)c2ccc(-n3ncc(-c4ccc(C#N)cc4)c3O)nc2)C1` [Example 76, 6-(4-(4-cyanophenyl)-5-hydroxy-1H-pyrazol-1-yl)-N-(1-methylazetidin-3-yl)nicotinamide] here?
Answer: Its value is 6.68.

Question: What about the EC50 [2] of the same compound?
Answer: The EC50 was 3090 nM.

Question: Which results are given for `N#Cc1ccc(-c2cnn(-c3ccc(C(=O)NCC(F)(F)F)cn3)c2O)cc1` [Example 77, 6-(4-(4-cyanophenyl)-5-hydroxy-1H-pyrazol-1-yl)-N-(2,2,2-trifluoroethyl)nicotinamide]?
Answer: PHD Inhibition (pIC50) [1]: 7.03; EC50 [2]: 1260 nM

Question: For `N#Cc1ccc(-c2cnn(-c3ccc(C(=O)NCCF)cn3)c2O)cc1` [Example 78, 6-(4-(4-cyanophenyl)-5-hydroxy-1H-pyrazol-1-yl)-N-(2-fluoroethyl)nicotinamide], which “PHD Inhibition (pIC50)” value [1] is on record?
Answer: The value was 7.07.

Question: What about the EC50 [2] of the same compound?
Answer: Its EC50 is 1550 nM.

Question: What does the source list for `CCC(C)NC(=O)c1ccc(-n2ncc(-c3ccc(C#N)cc3)c2O)nc1` (stereo not shown) [Example 80, N-(sec-butyl)-6-(4-(4-cyanophenyl)-5-hydroxy-1H-pyrazol-1-yl)nicotinamide]?
Answer: PHD Inhibition (pIC50) [1]: 7.23; EC50 [2]: 1070 nM

Question: Which results are given for `N#Cc1ccc(-c2cnn(-c3ccc(C(=O)NC4CCOCC4)cn3)c2O)cc1` [Example 81, 6-(4-(4-cyanophenyl)-5-hydroxy-1H-pyrazol-1-yl)-N-(tetrahydro-2H-pyran-4-yl)nicotinamide]?
Answer: PHD Inhibition (pIC50) [1]: 7.2; EC50 [2]: 4790 nM

Question: `N#Cc1ccc(-c2cnn(-c3ccc(C(=O)NC4CCC(F)(F)CC4)cn3)c2O)cc1` [Example 84, 6-(4-(4-cyanophenyl)-5-hydroxy-1H-pyrazol-1-yl)-N-(4,4-difluorocyclohexyl)nicotinamide] was tested. Which “PHD Inhibition (pIC50)” value [1] did it give?
Answer: The value was 6.91.

Question: What about the EC50 [2] of the same compound?
Answer: The EC50 was 2240 nM.

Question: `N#Cc1ccc(-c2cnn(-c3ccc(C(=O)NC4CCN(CCO)CC4)cn3)c2O)cc1` [Example 85, 6-(4-(4-cyanophenyl)-5-hydroxy-1H-pyrazol-1-yl)-N-(1-(2-hydroxyethyl)piperidin-4-yl)nicotinamide] was tested. Which “PHD Inhibition (pIC50)” value [1] did it give?
Answer: The value was 6.94.

Question: What about the EC50 [2] of the same compound?
Answer: Its EC50 is 2240 nM.

Question: `CC[C@H](C)NC(=O)c1ccc(-n2ncc(-c3ccc(C#N)cc3)c2O)nc1` [Example 87, (S)—N-(sec-butyl)-6-(4-(4-cyanophenyl)-5-hydroxy-1H-pyrazol-1-yl)nicotinamide] was tested. Which “PHD Inhibition (pIC50)” value [1] did it give?
Answer: Its value is 7.66.

Question: What about the EC50 [2] of the same compound?
Answer: Its EC50 is 603 nM.

Question: With `CC(C)OCCNC(=O)c1ccc(-n2ncc(-c3ccc(C#N)cc3)c2O)nc1` [Example 89, 6-(4-(4-cyanophenyl)-5-hydroxy-1H-pyrazol-1-yl)-N-(2-isopropoxyethyl)nicotinamide] as the compound, how does the “PHD Inhibition (pIC50)” value [1] read?
Answer: The value was 7.24.

Question: And the EC50 [2]?
Answer: Its EC50 is 708 nM.

Question: How did the “PHD Inhibition (pIC50)” value [1] turn out when `N#Cc1ccc(-c2cnn(-c3ccc(C(=O)NCCCN4CCOCC4)cn3)c2O)cc1` [Example 91, 6-(4-(4-cyanophenyl)-5-hydroxy-1H-pyrazol-1-yl)-N-(3-morpholinopropyl)nicotinamide] was run?
Answer: Its value is 7.18.

Question: What about the EC50 [2] of the same compound?
Answer: Its EC50 is 933 nM.

Question: For `N#Cc1ccc(-c2cnn(-c3ccc(C(=O)NC4CCN(C5CC5)CC4)cn3)c2O)cc1` [Example 93, 6-(4-(4-cyanophenyl)-5-hydroxy-1H-pyrazol-1-yl)-N-(1-cyclopropylpiperidin-4-yl)nicotinamide], which “PHD Inhibition (pIC50)” value [1] is on record?
Answer: Its value is 7.08.

Question: And the EC50 [2]?
Answer: The EC50 was 871 nM.

Question: `Cc1cc(C#N)ccc1-c1cnn(-c2ccc(C(=O)NCC3CCN(C)CC3)cn2)c1O` [Example 94, 6-(4-(4-cyano-2-methylphenyl)-5-hydroxy-1H-pyrazol-1-yl)-N-((1-methylpiperidin-4-yl)methyl)nicotinamide] was tested. Which “PHD Inhibition (pIC50)” value [1] did it give?
Answer: The value was 7.9.

Question: What about the EC50 [2] of the same compound?
Answer: The EC50 was 93.3 nM.

Question: How did the “PHD Inhibition (pIC50)” value [1] turn out when `Cc1cc(C#N)ccc1-c1cnn(-c2ccc(C(=O)NCCCN(C)C)cn2)c1O` [Example 95, 6-(4-(4-cyano-2-methylphenyl)-5-hydroxy-1H-pyrazol-1-yl)-N-(3-(dimethylamino)propyl)nicotinamide] was run?
Answer: Its value is 7.9.

Question: What about the EC50 [2] of the same compound?
Answer: Its EC50 is 83.2 nM.

Question: Which “PHD Inhibition (pIC50)” value [1] does the source give for `Cc1cc(C#N)ccc1-c1cnn(-c2ccc(C(=O)NCC3CCN(C)C3)cn2)c1O` (stereo not shown) [Example 96, 6-(4-(4-cyano-2-methylphenyl)-5-hydroxy-1H-pyrazol-1-yl)-N-((1-methylpyrrolidin-3-yl)methyl)nicotinamide] here?
Answer: The value was 8.

Question: And the EC50 [2]?
Answer: Its EC50 is 56.2 nM.

Question: `Cc1cc(C#N)ccc1-c1cnn(-c2ccc(C(=O)NCCCN3CCCCC3C)cn2)c1O` (stereo not shown) [Example 97, 6-(4-(4-cyano-2-methylphenyl)-5-hydroxy-1H-pyrazol-1-yl)-N-(3-(2-methylpiperidin-1-yl)propyl)nicotinamide] was tested. Which “PHD Inhibition (pIC50)” value [1] did it give?
Answer: The value was 8.

Question: And the EC50 [2]?
Answer: Its EC50 is 56.2 nM.

Question: For `CCN1CCC(NC(=O)c2ccc(-n3ncc(-c4ccc(C#N)cc4C)c3O)nc2)CC1` [Example 98, 6-(4-(4-cyano-2-methylphenyl)-5-hydroxy-1H-pyrazol-1-yl)-N-(1-ethylpiperidin-4-yl)nicotinamide], which “PHD Inhibition (pIC50)” value [1] is on record?
Answer: The value was 7.9.

Question: What about the EC50 [2] of the same compound?
Answer: Its EC50 is 120 nM.

Question: `Cc1cc(C#N)ccc1-c1cnn(-c2ccc(C(=O)NCCCN3CCCCC3)cn2)c1O` [Example 99, 6-(4-(4-cyano-2-methylphenyl)-5-hydroxy-1H-pyrazol-1-yl)-N-(3-(piperidin-1-yl)propyl)nicotinamide] was tested. Which “PHD Inhibition (pIC50)” value [1] did it give?
Answer: The value was 7.9.

Question: What about the EC50 [2] of the same compound?
Answer: Its EC50 is 53.7 nM.
